≈ marks a conversion by molar mass, not a printed value. Read-outs that look alike come from different tables or passages of the source.
Columns and labels:
[1] = test system: Penicillinsensitive S. aureus; assay: MIC, two-fold serial agar dilution in Mueller-Hinton agar, group (G+)-Ia; format: cell-based; settings: Staphylococcus aureus; (G+)-Ia, penicillin-sensitive S. aureus (5 strains); read-out: Geometric Mean of MIC
Experimental: (§1) In the primary evaluation of the compounds of this invention, the Minimum Inhibitory Concentrations (MIC's) of the compounds were determined by the two-fold serial agar dilution method in Mueller-Hinton agar against 32 strains of test organisms in six groups.

[2] = test system: M. morganii, Ent. cloacae and Ser. marcescens; assay: MIC, two-fold serial agar dilution in Mueller-Hinton agar, group (G-)-II; format: cell-based; settings: read-out: Geometric Mean of MIC
Experimental: as §1
(G-)II: M. morganii (1 strain), Ent. cloacae (2 strains) and Ser.

[3] = test system: Penicillinresistant S. aureus; assay: MIC, two-fold serial agar dilution in Mueller-Hinton agar, group (G+)-Ib; format: cell-based; settings: Staphylococcus aureus, read-out: Geometric Mean of MIC
Experimental: as §1
(G+)Ib: Penicillinresistant S. aureus (5 strains)

Pr. mirabilis A9554 = assay: MIC against specific test organism; format: cell-based; settings: Proteus mirabilis, read-out: Minimum Inhibitory Concentration
Experimental: as §1
(§2) The test method was as described for Table 1.

Ps. aeruginosa A20717 = assay: MIC against specific test organism; format: cell-based; settings: Pseudomonas aeruginosa, read-out: Minimum Inhibitory Concentration
Experimental: as §1, §2

S. aureus Smith = assay: MIC against specific test organism; format: cell-based; settings: Staphylococcus aureus, read-out: Minimum Inhibitory Concentration
Experimental: as §1, §2

K. pneumoniae D11 = assay: MIC against specific test organism; format: cell-based; settings: Klebsiella pneumoniae, read-out: Minimum Inhibitory Concentration
Experimental: as §1, §2

M. morganii A9553 = assay: MIC against specific test organism; format: cell-based; settings: Morganella morganii, read-out: Minimum Inhibitory Concentration
Experimental: as §1, §2

E. coli Juhl = assay: MIC against specific test organism; format: cell-based; settings: Escherichia coli, read-out: Minimum Inhibitory Concentration
Experimental: as §1, §2

K. pneumoniae A9867 = assay: MIC against specific test organism; format: cell-based; settings: Klebsiella pneumoniae; K. pneumoniae A9867, cephalothin-resistant strain; read-out: Minimum Inhibitory Concentration
Experimental: as §1, §2

S. aureus BX-1633-2 = assay: MIC against specific test organism; format: cell-based; settings: Staphylococcus aureus, BX16332; S. aureus BX-1633-2, penicillin-resistant strain; read-out: Minimum Inhibitory Concentration
Experimental: as §1, §2

E. coli A15164 = assay: MIC against specific test organism; format: cell-based; settings: Escherichia coli; E. coli A15164, cephalothin-resistant strain; read-out: Minimum Inhibitory Concentration
Experimental: as §1, §2

Ser. marcescens A20019 = assay: MIC against specific test organism; format: cell-based; settings: Serratia marcescens, read-out: Minimum Inhibitory Concentration
Experimental: as §1, §2

Ps. aeruginosa A9843 = assay: MIC against specific test organism; format: cell-based; settings: Pseudomonas aeruginosa, read-out: Minimum Inhibitory Concentration
Experimental: as §1, §2

Ps. aeruginosa A15150 = assay: MIC against specific test organism; format: cell-based; settings: Pseudomonas aeruginosa, read-out: Minimum Inhibitory Concentration
Experimental: as §1, §2

Ent. cloacae A9656 = assay: MIC against specific test organism; format: cell-based; settings: Enterobacter cloacae, read-out: Minimum Inhibitory Concentration
Experimental: as §1, §2

[4] = Mouse blood levels after single intramuscular injection; format: in vivo, mice; settings: for concentration at 10 min / concentration at 20 min / concentration at 0.5 h / concentration at 40 min / concentration at 50 min / concentration at 1 h / concentration at 1.5 h / concentration at 2 h: read-out: Mouse Blood Level; for concentration at 0.5 h: 30 minutes; for concentration at 1 h: 60 minutes; for concentration at 1.5 h: 90 minutes; for concentration at 2 h: 120 minutes
Experimental: The absorption of some of the preferred compounds were determined in mice following a single intramuscular injection of the test compound (dissolved in 0.1M phosphate buffer; pH 7) at a dosage of 10, 20 or 40 mg/kg. Blood samples were collected from the orbital sinuses into heparinized capillary tubes and assayed in Nutrient Agar (pH 6.6) using E. coli Ess-22-31 as the test organism. The blood levels at various time intervals, the half-life values (t1/2) and the areas under the curve (AUC) are shown in Table 3.

[5] = test system: Cephalothinresistant E. coli and Kl. pneumoniae; assay: MIC, two-fold serial agar dilution in Mueller-Hinton agar, group (G-)-Ib; format: cell-based; settings: read-out: Geometric Mean of MIC
Experimental: as §1
(G-)Ib: Cephalothinresistant E. coli (3 strains) and Kl. pneumoniae (3

[6] = test system: Cephalothinsensitive E. coli, Kl. pneumoniae and Pr. mirabilis; assay: MIC, two-fold serial agar dilution in Mueller-Hinton agar, group (G-)-Ia; format: cell-based; settings: (G-)-Ia, cephalothin-sensitive E. coli (2), Kl. pneumoniae (1), Pr. mirabilis (2 strains); read-out: Geometric Mean of MIC
Experimental: as §1
(G-)Ia: Cephalothinsensitive E. coli (2 strains), Kl. pneumoniae (1
strain) and Pr. mirabilis (2 strains)

Ps. aeruginosa = assay: MIC, two-fold serial agar dilution in Mueller-Hinton agar, group (G-)-III; format: cell-based; settings: Pseudomonas aeruginosa, Ps. aeruginosa (6 strains), read-out: Geometric Mean of MIC
Experimental: as §1

CSc1scc[n+]1CC1=C(C(=O)[O-])N2C(=O)C(NC(=O)/C(=N\OC3(C(=O)O)CCC3)c3csc(N)n3)[C@H]2SC1 (stereo partly shown) [Example 2, 7-[(Z)-2-(2-Aminothiazol-4-yl)-2-(1-carboxycyclobut-1-oxyimino)acetamido]-3-(2-methylthiothiazolio)methyl-3-cephem-4-carboxylate]
MIC [1]: 0.92 µg/mL (≈ 1.51 µM) | MIC ([2]; (G-)-II, M. morganii (1), Ent. cloacae (2), Ser. marcescens (2 strains)): 0.2 µg/mL (≈ 0.327 µM) | MIC [3]: 2.7 µg/mL (≈ 4.42 µM) | MIC (Pr. mirabilis A9554): 0.025 µg/mL (≈ 0.0409 µM) | MIC (Ps. aeruginosa A20717): 6.3 µg/mL (≈ 10.3 µM) | MIC (S. aureus Smith): 1.6 µg/mL (≈ 2.62 µM) | MIC (K. pneumoniae D11): 0.05 µg/mL (≈ 0.0819 µM) | MIC (M. morganii A9553): 0.2 µg/mL (≈ 0.327 µM) | MIC (E. coli Juhl): 0.1 µg/mL (≈ 0.164 µM) | MIC (K. pneumoniae A9867): 3.1 µg/mL (≈ 5.08 µM) | MIC (S. aureus BX-1633-2): 3.1 µg/mL (≈ 5.08 µM) | MIC (E. coli A15164): 0.4 µg/mL (≈ 0.655 µM) | MIC (Ser. marcescens A20019): 0.1 µg/mL (≈ 0.164 µM) | MIC (Ps. aeruginosa A9843): 1.6 µg/mL (≈ 2.62 µM) | MIC (Ps. aeruginosa A15150): 0.8 µg/mL (≈ 1.31 µM) | MIC (Ent. cloacae A9656): 0.05 µg/mL (≈ 0.0819 µM) | AUC ([4]; 10 mg/kg im): 3600 ng·h/mL | half-life ([4]; 10 mg/kg im): 17 min | concentration at 10 min ([4]; 10 mg/kg im): 8400 ng/mL | concentration at 20 min ([4]; 10 mg/kg im): 5500 ng/mL | concentration at 0.5 h ([4]; 10 mg/kg im): 3700 ng/mL | concentration at 40 min ([4]; 10 mg/kg im): < 1600 ng/mL | AUC ([4]; 20 mg/kg im): 9000 ng·h/mL | half-life ([4]; 20 mg/kg im): 11 min | concentration at 10 min ([4]; 20 mg/kg im): 22000 ng/mL | concentration at 20 min ([4]; 20 mg/kg im): 15000 ng/mL | concentration at 0.5 h ([4]; 20 mg/kg im): 8600 ng/mL | concentration at 40 min ([4]; 20 mg/kg im): 5700 ng/mL | concentration at 50 min ([4]; 20 mg/kg im): 2400 ng/mL | concentration at 1 h ([4]; 20 mg/kg im): < 1600 ng/mL | AUC ([4]; 40 mg/kg im): 16000 ng·h/mL | half-life ([4]; 40 mg/kg im): 11 min | concentration at 10 min ([4]; 40 mg/kg im): 43000 ng/mL | concentration at 20 min ([4]; 40 mg/kg im): 27000 ng/mL | concentration at 0.5 h ([4]; 40 mg/kg im): 14000 ng/mL | concentration at 40 min ([4]; 40 mg/kg im): 7500 ng/mL | concentration at 50 min ([4]; 40 mg/kg im): 3800 ng/mL | concentration at 1 h ([4]; 40 mg/kg im): 2300 ng/mL | concentration at 1.5 h ([4]; 40 mg/kg im): < 1600 ng/mL | MIC [5]: 0.4 µg/mL (≈ 0.655 µM) | MIC [6]: 0.025 µg/mL (≈ 0.0409 µM) | MIC (Ps. aeruginosa): 1.8 µg/mL (≈ 2.95 µM)

CO/N=C(\C(=O)NC1C(=O)N2C(C(=O)[O-])=C(C[n+]3ccsc3SC)CS[C@H]12)c1csc(N)n1 (stereo partly shown) [Example 3, 7-[(Z)-2-(2-Aminothiazol-4-yl)-2-(methoxyimino)acetamido]-3-(2-methylthiothiazolio)methyl-3-cephem-4-carboxylate]
MIC [1]: 0.23 µg/mL (≈ 0.437 µM) | MIC [2]: 0.14 µg/mL (≈ 0.266 µM) | MIC [3]: 0.8 µg/mL (≈ 1.52 µM) | MIC (Pr. mirabilis A9554): 0.05 µg/mL (≈ 0.0949 µM) | MIC (Ps. aeruginosa A20717): 6.3 µg/mL (≈ 12 µM) | MIC (S. aureus Smith): 0.4 µg/mL (≈ 0.76 µM) | MIC (K. pneumoniae D11): 0.025 µg/mL (≈ 0.0475 µM) | MIC (M. morganii A9553): 0.2 µg/mL (≈ 0.38 µM) | MIC (E. coli Juhl): 0.025 µg/mL (≈ 0.0475 µM) | MIC (K. pneumoniae A9867): 0.8 µg/mL (≈ 1.52 µM) | MIC (S. aureus BX-1633-2): 0.8 µg/mL (≈ 1.52 µM) | MIC (E. coli A15164): 0.1 µg/mL (≈ 0.19 µM) | MIC (Ser. marcescens A20019): 0.025 µg/mL (≈ 0.0475 µM) | MIC (Ps. aeruginosa A9843): 3.1 µg/mL (≈ 5.89 µM) | MIC (Ps. aeruginosa A15150): 0.8 µg/mL (≈ 1.52 µM) | MIC (Ent. cloacae A9656): 0.05 µg/mL (≈ 0.0949 µM) | AUC ([4]; 10 mg/kg im): 18000 ng·h/mL | half-life ([4]; 10 mg/kg im): 47 min | concentration at 10 min ([4]; 10 mg/kg im): 14000 ng/mL | concentration at 20 min ([4]; 10 mg/kg im): 14000 ng/mL | concentration at 0.5 h ([4]; 10 mg/kg im): 12000 ng/mL | concentration at 40 min ([4]; 10 mg/kg im): 10000 ng/mL | concentration at 50 min ([4]; 10 mg/kg im): 9800 ng/mL | concentration at 1 h ([4]; 10 mg/kg im): 6800 ng/mL | concentration at 1.5 h ([4]; 10 mg/kg im): 5200 ng/mL | concentration at 2 h ([4]; 10 mg/kg im): 3200 ng/mL | AUC ([4]; 20 mg/kg im): 29000 ng·h/mL | half-life ([4]; 20 mg/kg im): 46 min | concentration at 10 min ([4]; 20 mg/kg im): 24000 ng/mL | concentration at 20 min ([4]; 20 mg/kg im): 22000 ng/mL | concentration at 0.5 h ([4]; 20 mg/kg im): 20000 ng/mL | concentration at 40 min ([4]; 20 mg/kg im): 17000 ng/mL | concentration at 50 min ([4]; 20 mg/kg im): 13000 ng/mL | concentration at 1 h ([4]; 20 mg/kg im): 11000 ng/mL | concentration at 1.5 h ([4]; 20 mg/kg im): 9500 ng/mL | concentration at 2 h ([4]; 20 mg/kg im): 4500 ng/mL | AUC ([4]; 40 mg/kg im): 60000 ng·h/mL | half-life ([4]; 40 mg/kg im): 54 min | concentration at 10 min ([4]; 40 mg/kg im): 48000 ng/mL | concentration at 20 min ([4]; 40 mg/kg im): 36000 ng/mL | concentration at 0.5 h ([4]; 40 mg/kg im): 32000 ng/mL | concentration at 40 min ([4]; 40 mg/kg im): 32000 ng/mL | concentration at 50 min ([4]; 40 mg/kg im): 24000 ng/mL | concentration at 1 h ([4]; 40 mg/kg im): 20000 ng/mL | concentration at 1.5 h ([4]; 40 mg/kg im): 15000 ng/mL | concentration at 2 h ([4]; 40 mg/kg im): 10000 ng/mL | MIC [5]: 0.15 µg/mL (≈ 0.285 µM) | MIC [6]: 0.022 µg/mL (≈ 0.0418 µM) | MIC (Ps. aeruginosa): 2 µg/mL (≈ 3.8 µM)

— patent US4507487A, “Chemical compounds” (Bristol-Myers Company, priority 1983, dated 1985)
